Several values for one entry are separate records, joined by “and”; a condition that tells them apart may be missing. Equal entries are not always repeated. Where two headings read alike, the source gives them in different places.
How the values were obtained:
[1] = mice, after 4 hours of treatment; cited from earlier work
[2] = system: SCD1; test: SCD1 protein expression in ARPE-19 cells (Western blot densitometry); assay type: cell-based, human; settings: 10 μM
Description: Compounds were dissolved in dimethyl sulfoxide (DMSO) and then added to the cell culture medium. Cells designated as control received an equal amount of dimethyl sulfoxide. After 16 h, cells were incubated with 50 μM palmitic acid triply deuterated (D3) on the methyl group (Cambridge Isotope Laboratories, Tewksbury, MA) for an additional 5 h before harvesting.
Samples were resuspended in 20 μl 4X reducing NuPAGE LDS sample buffer (Invitrogen). For western blot analysis, equal amounts of total protein (50 μg) from cell extracts were subjected to SDS-polyacrylamide gel electrophoresis using 4–12% NUPAGE Bis-Tris gels and then transferred to a nitrocellulose membrane using iBlot® Dry Blotting System (Invitrogen, Carlsbad, CA). After blocking in 5% non-fat milk in Tris-buffered saline (TBS) containing 0.01% Tween 20 for 1 h, the membranes were incubated overnight at 4°C with mouse monoclonal anti-SCD1 antibody (1:200; Kamiya Biomedical Company). Peroxidase-conjugated goat anti-mouse IgG antibody was used as secondary antibody. Immunocomplexes were visualized by a chemiluminescence method using the ECL Prime western blotting Detection Kit (GE Healthcare Life Sciences). The blots were then stripped and reprobed with mouse monoclonal anti-α-tubulin antibody.
Cell lysates were analyzed by Western blotting using mouse monoclonal antibody against SCD1 (upper panel) in comparison with immunoreactivity to α-tubulin which was employed as a loading control (lower panel) and densitometry for each lane was performed and analyzed by ImageJ to provide the SCD1/α-tubulin ratio for each lane. […] Free fatty acids present in lipid extracts were analyzed by LC/MS and SCD1 activity, measured by the conversion of methyl-D3 palmitic acid to methyl-D3 palmitoleic acid, was determined. […] Lipids were extracted from two 100 mm Petri dishes and combined for mass spectrometry analysis. Data plotted as means ± standard deviation; n = 3. […] They are given here as printed results in cells, but it is uncertain whether they fall under the exclusion for gels and blots. / Panel A: the Control lane (1.00) is left out because it is not a substance.

[3] = molecular target: T1, recombinant mouse BCO1 (Mus musculus, UniProt Q9JJS6); test: In vitro inhibition of recombinant mouse BCO1 activity; assay type: biochemical
T1 construct: His-tag; made in house; host or cells: E. coli
T1 sequence (Q9JJS6 1-566): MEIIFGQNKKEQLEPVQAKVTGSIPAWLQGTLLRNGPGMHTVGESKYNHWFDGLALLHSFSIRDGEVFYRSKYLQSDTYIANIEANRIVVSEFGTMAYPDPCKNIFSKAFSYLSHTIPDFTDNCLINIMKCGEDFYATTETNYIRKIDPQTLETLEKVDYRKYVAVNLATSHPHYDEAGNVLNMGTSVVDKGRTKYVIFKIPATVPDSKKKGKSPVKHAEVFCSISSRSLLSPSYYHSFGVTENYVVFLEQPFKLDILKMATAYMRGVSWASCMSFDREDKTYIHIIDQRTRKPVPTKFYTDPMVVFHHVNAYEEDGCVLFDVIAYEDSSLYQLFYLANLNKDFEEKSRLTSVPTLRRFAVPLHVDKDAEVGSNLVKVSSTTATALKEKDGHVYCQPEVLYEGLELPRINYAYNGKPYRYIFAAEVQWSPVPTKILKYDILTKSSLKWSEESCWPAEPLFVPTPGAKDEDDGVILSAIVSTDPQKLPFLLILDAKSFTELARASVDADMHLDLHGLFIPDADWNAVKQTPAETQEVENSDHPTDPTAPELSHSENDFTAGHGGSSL
Description: Recombinant His-tag mouse BCO1 was produced in E.coli and purified using Talon CellThru (Clontech Labs, Inc., Mountain View, CA) resin as described previously. β-carotene was delivered in 1% octylthioglucoside. […] All other inhibitors were delivered in ethanol. […] The final concentration of ethanol in all samples was 1%. […] Data plotted as means±standard deviation; n = 3; […] Analysis was done in C57BL/6 wt (3 animals) and Bco1^-/- mice (13 animals).

[4] = molecular target: T2, RARβ (Homo sapiens, UniProt P10826); test: GeneBLAzer RAR-beta DA assay, agonist mode; assay type: cell-based
T2 sequence (P10826 183-417 limits assumed): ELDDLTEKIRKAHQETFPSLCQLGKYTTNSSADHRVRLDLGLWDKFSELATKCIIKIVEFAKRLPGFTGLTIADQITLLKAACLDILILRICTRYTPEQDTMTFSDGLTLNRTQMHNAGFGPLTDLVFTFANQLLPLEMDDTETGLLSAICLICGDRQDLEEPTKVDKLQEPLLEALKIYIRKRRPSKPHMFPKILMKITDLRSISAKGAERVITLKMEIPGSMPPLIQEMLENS
Description: (§1) The potency of agonists and antagonists was measured by GeneBLAzer RAR-beta DA Assay Kit (ThermoFisher Scientific) according to the manufacturer’s recommendations.
The phenylretinamides may have the ability to modulate the expression of proteins and induce cell apoptosis via RAR-dependent and -independent pathways. […] Human retina-derived cells in culture show differences in expression of RAR receptors. […] Clonetics HRPE primary human cells specifically express only RARβ [50].

[5] = molecular target: T2, RARβ; test: GeneBLAzer RAR-beta DA assay, antagonist mode (competition with at-RA); assay type: cell-based; settings: for competition with all-trans-retinoic acid: at-RA 0.5–1.5 nM, tested 10^−5 to 10^−9 M
Description: as §1
The phenylretinamides may have the ability to modulate the expression of proteins and induce cell apoptosis via RAR-dependent and -independent pathways. […] Additionally, apoptosis of neuroblastoma cell lines was blocked by two retinoic acid receptor (RAR)-β/γ-specific antagonists, but not by a RARα-specific antagonist. […] However, in this case the specific RARα-specific antagonist AGN194301 could block fenretinde-induced apoptosis. […] Human retina-derived cells in culture show differences in expression of RAR receptors. […] Clonetics HRPE primary human cells specifically express only RARβ [50].
Fluorescence was measured at excitation (ex) 409 nm/emission (em) 460 and at ex 409nm/em 530 nm and the ratio was determined and plotted against a range of concentrations (10^−5 to 10^−9 M) of the tested compounds.

[6] = humans; cited from earlier work
[7] = molecular target: RBP4 (Homo sapiens, UniProt P02753); parameters: method as in PMID 16303925; settings: cited from earlier work
[8] = molecular target: T2, RARβ; parameters: method as in Invitrogen; settings: RARβ agonist assay; ref Invitrogen; read-out: EC50 from Invitrogen; cited from earlier work

| effect on BCO1 activity ([3]; inhibitor 0–200 μM) | Compound | metabolite level as % of plasma levels of 4-HPR [1] | effect on SCD1 expression [2] | IC50 [3] [nM] | EC50 [4] | competition with all-trans-retinoic acid [5] | IC50 ([3]; 20 μM β-carotene, enzyme preincubated with inhibitor 10 min at 4°C, read-out: IC50 BCO1) [nM] | metabolite level as % of plasma levels of 4-HPR [6] | affinity for RBP4 lower than for fenretinide or retinol [7] [fold] | Kd ([7]; read-out: affinity for RBP4) [nM] | IC50 ([5]; competition with 1 nM at-RA) [nM] | EC50 [8] [nM] |
| --- | --- | --- | --- | --- | --- | --- | --- | --- | --- | --- | --- | --- |
| – | CC1=C(/C=C/C(C)=C/C=C/C(C)=C/C(=O)Nc2ccc(O)cc2)C(C)(C)CCC1=O [3-keto-HPR, 4-oxo-N-(4-hydroxyphenyl)retinamide] | ~ 23% | more efficiently inhibits SCD1 expression | 4000 | – | – | – | – | – | – | – | – |
| – | COc1ccc(NC(=O)/C=C(C)/C=C/C=C(C)/C=C/C2=C(C)CCCC2(C)C)cc1 [MPR, N-[4-methoxyphenyl]retinamide] | – | do not affect | – | 1000 nM and 1010 nM | cannot compete | 5000 | ~ 45% | 2 | ~100 | – | – |
| – | CC1=C(/C=C/C(C)=C/C=C/C(C)=C/C(=O)Nc2ccc(O)cc2)C(C)(C)CCC1 [fenretinide, N-[4-hydroxyphenyl]retinamide] | – | inhibitory effect on SCD1 expression | – | 560 nM | – | – | – | – | – | 10000 | 220 |
| does not affect BCO1 activity | O=C(O)c1ccccc1NC(=O)N1CCC(c2ccccc2C(F)(F)F)CC1 [A1120] | – | do not affect | – | – | cannot compete | – | – | – | – | – | – |
